Experiment [1] concerns Creb312. The experiment can be described thus: Proteolytic cleavage of HA-tagged full-length Creb312 to the nuclear form in NRVM after chemical ER stressors or hypertrophic agonists (Western Blot, anti-HA). It counts as cell-based, rat. The method, then:
Isolation of neonatal rat ventricular cardiomyocytes. All procedures described below were conducted according to the guidelines of the Harvard University Animal Care and Use Committee. Ventricular myocytes were isolated from 2 day-old Sprague Dawley rats as briefly described. Excised ventricular tissue was agitated in a 0.1% trypsin solution cooled to 4° C. for approximately 14 hours. Trypsinized ventricles were dissociated into their cellular constituents via serial exposure to a 0.1% solution of collagenase type II at 37° C. for 2 minutes. The myocyte portion of the cell population was enriched by passing the dissociated cell solution through a nylon mesh with 40 μm pores, and then pre-plating twice for 45 minutes each time. 10^6 isolated myocytes were seeded onto silicon membranes coated with fibronectin in culture medium consisting of M199 base supplemented with 10% heat-inactivated Fetal Bovine Serum, 10 mM HEPES, 20 mM glucose, 2 mM L-glutamine, 1.5 ? M vitamin B-12, and 50 U/ml penicillin. On the second day of culture, the serum concentration of the medium was reduced to 2%, and the medium was changed every 48 hours thereafter.
Adenovirus preparation and infection. Replication-defective recombinant adenoviruses expressing GFP and either HA-Creb312(FL) or HA-Creb312(N) under the control of CMV in bicistronic cassettes were generated using the AdEasy XL system (Stratagene). Briefly, HA-Creb312(FL) or HA-Creb312(N) were subcloned into the adenovirus shuttle vector pAdTrack-CMV (generous gift by Bert Vogelstein, Ref), and these constructs used for the generation of Ad.Creb312(FL) or Ad.Creb312(N), respectively, according to manufacturer's instructions. Adenoviral shuttle constructs for the expression of miRNAs against rat ILK, rat FAK, rat Creb312 under the control of hCMV were obtained by subcloning the XbaI/HindIII fragments of the respective miRNA expression constructs in pcDNA6-GW/EmGFP-miR (Invitrogen) into pShuttle (Stratagene). The recombinant adenoviruses were concentrated and purified by CsCl gradient ultracentrifugation, and the virus titer was determined through plaque assay.
NRVM were transduced with adenovirus at 5 moi (multiplicity of infection) in serum-free M199 for 90 min and maintained for 48 h in M-199/2% FCS before mechanical stretch, hypoxia experiments or treatment with chemicals.
Treatment with chemical ER stressors, cardiac hypertrophic agonists, hypoxic stress. 5×10^5 NRVM were plated in 6 well plates, transduced with Ad.Creb312(FL) and treated 48 h afterwards with tunicamycin (Tm), thapsigargin (Tg), brefeldin A (BFA) or DTT (1 mM) for 30 min and harvested for immunoblot analyses. Alternatively, NRVM were treated with phenylephrine, angiotensin II, endothelin or isoproterenol for 24 h. For hypoxic stress, 5×10^5 NRVM were plated in 6 well plates and switched from 20% O2/5% CO2 to 0.1% O2/5% CO2 for the indicated times.
Immunoprecipitation and Immunoblot. For immunoprecipitation, 10 μg pcDNA3/3xFlag-Creb312(N) were transfected into COS7 cells with Fugene HD (Roche). 48 h later, cells were washed once with PBS, harvested and lysed in 50 mM Tris-HCl pH 7.4, 150 mM NaCl, 1% Triton X-100 and Complete Protease Inhibitor (Roche) on ice. After centrifugation at 13000 rpm, 30 min, 4C, the supernatant was used for subsequent experiments. Embryonic hearts of various stages were homogenized in ice-cold PBS with a Rotor-Stator Homogenizer, and nuclear extracts were prepared from the cell pellets using the NE-PER Nuclear and Cytoplasmic Extraction Reagents (Pierce). Protein concentrations were determined with the Protein Assay Dye Reagent (Bio-Rad). 1.8 mg 3× Flag-Creb312(N) protein extract and 25 μg heart nuclear extract were rotated with 40 μl anti-Flag M2 Affinity gel (Sigma) at 4C over night. […]
On the technique in general: In western blotting, separated proteins are transferred to a membrane and probed.

Experiment [2] concerns Creb312. Nature of the experiment: Formation of nuclear Creb312 in Ad.Creb312(FL)-transduced NRVM under biaxial mechanical stretch after pathway inhibition (immunoblot). The note with it: NRVM with Ad.Creb312(FL), inhibitor 30 min prior to 10% pulsary (cyclic) biaxial stretch, Akt1/2 inhibitor 1 μM, SH6 10 μM, LY294002 10 μM, PD98059 25 μM, U0126 10 μM, SP600125 10 μM, PP2 1 μM, SB203580 25 μM, wortmannin 200 nM, FIG. 5. It counts as cell-based, rat. Here is the method: Biaxial mechanical stretch experiments. Freshly isolated NRVM were seeded at 10^6 on fibronectin-coated silicon membranes and transduced with Ad.Creb312(FL) 48 h later. 2 days later, biaxial mechanical stretch experiments were carried out on devices as previously described (Ref, Andre Kleber paper) for indicated times. Cells were rinsed once in ice-cold PBS, harvested, lysed and processed for immunoblot. For inhibition experiments, NRVM were treated with chemical inhibitors for 30 min prior to stretching. All chemical inhibitors used were from Calbiochem except Akt1/2 inhibitor and wortmannin (Sigma). Concentrations used were: Akt1/2 inhibitor (1 μM), SH6 (10 μM), LY294002 (10 μM), PD98059 (25 μM), U0126 (10 μM), SP600125 (10 μM), PP2 (1 μM), SB203580 (25 μM), wortmannin (200 nM). […]
Immunoprecipitation and Immunoblot. For immunoprecipitation, 10 μg pcDNA3/3xFlag-Creb312(N) were transfected into COS7 cells with Fugene HD (Roche). 48 h later, cells were washed once with PBS, harvested and lysed in 50 mM Tris-HCl pH 7.4, 150 mM NaCl, 1% Triton X-100 and Complete Protease Inhibitor (Roche) on ice. After centrifugation at 13000 rpm, 30 min, 4C, the supernatant was used for subsequent experiments. Embryonic hearts of various stages were homogenized in ice-cold PBS with a Rotor-Stator Homogenizer, and nuclear extracts were prepared from the cell pellets using the NE-PER Nuclear and Cytoplasmic Extraction Reagents (Pierce). Protein concentrations were determined with the Protein Assay Dye Reagent (Bio-Rad). 1.8 mg 3× Flag-Creb312(N) protein extract and 25 μg heart nuclear extract were rotated with 40 μl anti-Flag M2 Affinity gel (Sigma) at 4C over night. Resins were washed twice each with 50 mM Tris-HCl pH 7.4, 150 mM NaCl with or without 0.1% Triton X-100, eluted with 15 μg 3× Flag peptide (Sigma), and 25 μl or 75 μl eluate were loaded on 10% SDS-polyacrylamide gels for subsequent immunoblot analysis. For immunoblots of mechanical stretch- or chemically treated-cardiomyocytes, 25 μg total cell extract were separated on 10% SDS-polyacrylamide gels. Primary antibodies used were: anti-Flag M2 (Sigma, 1:200), anti-HA (Bethyl, 1:4000), anti-Creb312 (1:2000), anti-phospho (Ser473)Akt (Cell Signaling, 1:1000), anti-phospho (Thr308)Akt (Cell Signaling, 1:1000), anti-Akt (Cell Signaling, 1:1000), anti-phospho p44/42 (Cell Signaling, 1:1000). Secondary antibodies (horseradish peroxidase-conjugated rabbit anti-mouse IgG or goat anti-rabbit IgG, Dako) were used at 1:10^5′ and immunoblots were developed with SuperSignal West Femto Substrate (Pierce).

For another experiment, the system named is ANF promoter region. The experiment can be described thus: ANF promoter regulated luciferase gene expression assay. The following applies: 700 bp promoter region of ANF; 50 ng DNA; FIG. 8B. It counts as cell-based. The text has this: (§1) FIGS. 8A-8D show the nuclear form of Creb312 activates BNP regulated luciferase gene expression.
The next experiment deals with BNP promoter region. Nature of the experiment: BNP promoter regulated luciferase gene expression assay. The following applies: for BNP regulated luciferase gene expression: 10 ng DNA. It counts as cell-based.
Excerpt: as §1

The mark [3] stands for this setting: NRVM transduced with Ad.Creb312(FL), ER stress-inducing chemicals, within one hour, Western Blot anti-HA.
The mark [4] stands for this setting: NRVM expressing HA-Creb312(FL), 24 h exposure to hypertrophic agonists, FIG. 4D.

Entries after “also recorded” stand apart in the source; their conditions may differ.

Turning to `O[C@H](CS)[C@H](O)CS` (racemic) [DTT, dithiothreitol], the “proteolytic cleavage of Creb312 (formation of the nuclear form)” value (“proteolytic cleavage of Creb312” below) in the experiment with Creb312 [1] (setting [3]) is “to a lesser extend”.

As to `O=c1[nH]c2ccccc2n1C1CCN(Cc2ccc(-c3nc4cc5[nH]cnc5cc4nc3-c3ccccc3)cc2)CC1` [Akt1/2], the “effect on formation of the proteolytically cleaved, nuclear form of Creb312 in response to mechanical stretch” value (from here on “effect on formation”) in the experiment on Creb312 [2] is listed as “complete ablation”; in the experiment with Creb312 [2] (listed as Akt1/2 Inh), “completely inhibited”.

Consider `COc1cccc(-c2cc(=O)c3ccccc3o2)c1N` [PD98059], for which, in the experiment on Creb312 [2], the “effect on formation” value is “did not show any effect; also recorded: did not inhibit”.

As for `CC(C)(C)n1nc(-c2ccc(Cl)cc2)c2c(N)ncnc21` [PP2], the “effect on formation” value with Creb312 [2] is on record as “did not show any effect; also recorded: did not inhibit”.

`C[S+]([O-])c1ccc(-c2nc(-c3ccncc3)c(-c3ccc(F)cc3)[nH]2)cc1` (centres unmarked) [SB203580]: in the experiment with Creb312 [2], the “effect on formation” value is “did not show any effect; also recorded: did not inhibit”.

In the case of `Oc1c2ccccc2c2c3c(cccc13)N=N2` [SP600125], the “effect on formation” value in the experiment on Creb312 [2] is given as “did not inhibit”.

Turning to `N#CC(=C(/N)Sc1ccccc1N)/C(C#N)=C(\N)Sc1ccccc1N` [U0126], the “effect on formation” value in the experiment with Creb312 [2] is recorded as “did not show any effect; also recorded: did not inhibit”.

For `C[C@H]1CCC/C=C/[C@@H]2C[C@H](O)C[C@H]2[C@H](O)/C=C/C(=O)O1` [brefeldinA], the “proteolytic cleavage of Creb312” value with Creb312 [1] (setting [3]) is recorded as “caused proteolytic cleavage of Creb312”.

As to `CCCC(=O)Nc1ncnc2c1ncn2[C@@H]1O[C@@H]2COP(=O)(O)O[C@H]2[C@H]1OC(=O)CCC` [dbcA], the “formation of nuclear Creb312 in response to cAMP treatment” value with Creb312 [1] (NRVM, data not shown) was “nuclear Creb312 is formed”.

In the case of `CC[C@H](C)[C@H](NC(=O)[C@H](CC(=O)O)NC(=O)[C@H](CC(C)C)NC(=O)[C@H](Cc1c[nH]cn1)NC(=O)[C@@H]1CSSC[C@H](N)C(=O)N[C@@H](CO)C(=O)N[C@H]2CSSC[C@H](NC(=O)[C@H](CCC(=O)O)NC(=O)[C@H](CCCCN)NC(=O)[C@H](CC(=O)O)NC(=O)[C@H](CCSC)NC(=O)[C@H](CC(C)C)NC(=O)[C@H](CO)NC(=O)[C@H](CO)NC2=O)C(=O)N[C@@H](C(C)C)C(=O)N[C@@H](Cc2ccc(O)cc2)C(=O)N[C@@H](Cc2ccccc2)C(=O)N1)C(=O)N[C@H](C(=O)N[C@@H](Cc1c[nH]c2ccccc12)C(=O)O)[C@@H](C)CC` [endothelin-1], the “proteolytic cleavage of Creb312” value with Creb312 [1] (setting [4]) is on record as “formation of the proteolytically cleaved, nuclear form of Creb312”.

Consider `CC(C)NCC(O)c1ccc(O)c(O)c1` (centres unmarked) [isoproterenol], for which, in the experiment with Creb312 [1] (setting [4]), the “proteolytic cleavage of Creb312” value is given as “most strongly induced; also recorded: formation of the proteolytically cleaved, nuclear form of Creb312”.

On to `CNC[C@H](O)c1cccc(O)c1` [phenylephrine], for which, in the experiment with Creb312 [1] (setting [4]), the “proteolytic cleavage of Creb312” value is given as “most strongly induced; also recorded: formation of the proteolytically cleaved, nuclear form of Creb312”.

Take `C/C=C(/C)C(=O)O[C@H]1C(C)=C2[C@H]([C@@H]1OC(=O)CCCCCCC)[C@@](C)(OC(C)=O)C[C@H](OC(=O)CCC)[C@@]1(O)[C@H]2OC(=O)[C@@]1(C)O` [thapsigargin]: the “proteolytic cleavage of Creb312” value in the experiment on Creb312 [1] (setting [3]) was “caused proteolytic cleavage of Creb312”.

As to “angiotensin-2 (DRVYIHPF; Angiotensin-2; UniProt P01019 25-32, looked up) [hypertrophic agonist]”, the “proteolytic cleavage of Creb312” value in the experiment with Creb312 [1] (setting [4]) is given as “formation of the proteolytically cleaved, nuclear form of Creb312”.

In the case of tunicamycin, in the experiment with Creb312 [1] (setting [3]), the “proteolytic cleavage of Creb312” value is listed as “to a lesser extend”.

B1: Creb312(N): nuclear form of Creb312, residues 1-376 of the full length Creb312 (SEQ ID NO: 3) (protein, listed as Homo sapiens)
chain: MEVLESGEQGVLQWDRKLSELSEPGDGEALMYHTHFSELLDEFSQNVLGQLLNDPFLSEKSVSMEVEPSPTSPAPLIQAEHSYSLCEEPRAQSPFTHITTSDSFNDDEVESEKWYLSTDFPSTSIKTEPVTDEPPPGLVPSVTLTITAISTPLEKEEPPLEMNTGVDSSCQTIIPKIKLEPHEVDQFLNFSPKEAPVDHLHLPPTPPSSHGSDSEGSLSPNPRLHPFSLPQTHSPSRAAPRAPSALSSSPLLTAPHKLQGSGPLVLTEEEKRTLIAEGYPIPTKLPLSKSEEKALKKIRRKIKNKISAQESRRKKKEYMDSLEKKVESCSTENLELRKKVEVLENTNRTLLQQLQKLQTLVMGKVSRTCKLAGTQT
Take B1: the “ANF regulated luciferase gene expression” value with ANF promoter region is “induced”. For the same molecule, the “BNP regulated luciferase gene expression” value in the experiment on BNP promoter region (2 kb promoter region of BNP, FIG. 8C) is reported as “induced”; with BNP promoter region (135 bp promoter region of BNP, FIG. 8D) it was “induced”. Besides, the “fold activation of luciferase gene expression” value in the experiment on BNP promoter region ((−135 to −115) BNP promoter region, 200 ng DNA, FIG. 10C) is reported as “three fold”.

The values are drawn from patent US20100210713A1, “REGENERATION AND SURVIVAL OF CARDIAC PROGENITORS AND CARDIOMYOCYTES WITH A STRETCH ACTIVATED TRANSCRIPTION FACTOR” (THE GENERAL HOSPITAL CORPORATION, priority 2009, published 2010).
